Test results: ChEMBL document CHEMBL1147920, “Identification of a novel class of succinyl-nitrile-based Cathepsin S inhibitors” (Bioorg Med Chem Lett, 2007)

What follows are molecules tested against Cathepsin S (Homo sapiens, UniProt P25774) (assay: Inhibition of human cathepsin S).
Sequence of Cathepsin S (P25774 whole entry): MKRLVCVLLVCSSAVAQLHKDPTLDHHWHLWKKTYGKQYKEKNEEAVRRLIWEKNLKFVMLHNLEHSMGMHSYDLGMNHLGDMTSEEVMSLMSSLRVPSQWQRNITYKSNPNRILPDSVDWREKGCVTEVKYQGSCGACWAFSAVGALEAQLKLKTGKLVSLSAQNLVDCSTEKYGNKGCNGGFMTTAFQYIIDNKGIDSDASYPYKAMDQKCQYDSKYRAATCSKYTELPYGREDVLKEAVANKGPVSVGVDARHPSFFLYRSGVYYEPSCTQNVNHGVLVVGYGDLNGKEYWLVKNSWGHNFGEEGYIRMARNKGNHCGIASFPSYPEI

| IC50 [nM] | Kd [nM] | SMILES |
| --- | --- | --- |
| 37 | 4.39 | N#C[C@H](COCc1ccccc1)NC(=O)[C@@H](CC(=O)N1CCOCC1)CC1CCCCC1 |
| 251 | 177 | CN1CCC(C#N)(NC(=O)[C@@H](CC(=O)N2CCOCC2)CC2CCCCC2)CC1 |
| 14 | 13.8 | CC1CCC(C[C@H](CC(=O)N2CCOCC2)C(=O)N[C@]2(C#N)CCN(C3CCCCC3)C2)CC1 (some centres undefined) |
| 155 | 161 | CN1CC[C@@](C#N)(NC(=O)[C@@H](CC(=O)N2CCOCC2)CC2CCCCC2)C1 |
| 171 | 25 | N#C[C@H](CCc1ccccc1)NC(=O)[C@@H](CC(=O)N1CCOCC1)CC1CCCCC1 |
| 47 | 77.3 | CC1(C[C@H](CC(=O)N2CCOCC2)C(=O)N[C@]2(C#N)CCN(C3CCCCC3)C2)CCCCC1 |
| 41 | 13.8 | N#C[C@]1(NC(=O)[C@@H](CC(=O)N2CCOCC2)CC2CCCCC2)CCN(CC2CCCCC2)C1 |
| 62 | 4.86 | N#C[C@H](COCc1ccc(Cl)cc1)NC(=O)[C@@H](CC(=O)N1CCOCC1)CC1CCCCC1 |
| 22 | 20 | N#C[C@@]1(NC(=O)[C@@H](CC(=O)N2CCOCC2)CC2CCCCC2)CCN(CC2CC2)C1 |
| 22.3 | 15.2 | N#C[C@@]1(NC(=O)[C@@H](CC(=O)N2CCOCC2)CC2CCCCC2)CCN(CCc2ccccc2)C1 |
| 42 | 23.1 | N#C[C@@]1(NC(=O)[C@@H](CC(=O)N2CCOCC2)CC2Cc3ccccc3C2)CCN(C2CCCCC2)C1 |
| 75 | – | N#C[C@@]1(NC(=O)[C@@H](CC(=O)N2CCOCC2)CC2CCCCC2)CCN(C2CCCC2)C1 |
| 3140 | – | N#C[C@@]1(NC(=O)[C@@H](CC(=O)N2CCOCC2)CC2CCC(c3ccccc3)CC2)CCN(C2CCCCC2)C1 (some centres undefined) |
| 1.9 | 5.4 | N#C[C@@]1(NC(=O)[C@@H](CC(=O)N2CCOCC2)CC2CCc3ccccc3C2)CCN(C2CCCCC2)C1 (some centres undefined) |
| 39 | 53.3 | CC(C)CN1CC[C@@](C#N)(NC(=O)[C@@H](CC(=O)N2CCOCC2)CC2CCCCC2)C1 |
| 23 | 17.8 | N#C[C@@]1(NC(=O)[C@@H](CC(=O)N2CCOCC2)CC2CCCCC2)CCN(C2CCCCC2)C1 |
| 63 | 59 | N#C[C@@]1(NC(=O)[C@@H](CC(=O)N2CCOCC2)CC2CCCC2)CCN(C2CCCCC2)C1 |
| 207 | 52 | N#CC1(NC(=O)[C@@H](CC(=O)N2CCOCC2)CC2CCCCC2)CCN(Cc2ccccc2)CC1 |
| 29 | 3.64 | N#C[C@]1(NC(=O)[C@@H](CC(=O)N2CCOCC2)CC2CCCCC2)CCN(Cc2ccccc2)C1 |
| 23 | 11 | N#C[C@@]1(NC(=O)[C@@H](CC(=O)N2CCOCC2)CC2CCCCC2)CCN(C2CCCCCC2)C1 |
| 66 | 60.6 | CC(C)N1CC[C@@](C#N)(NC(=O)[C@@H](CC(=O)N2CCOCC2)CC2CCCCC2)C1 |
| 141 | 123 | N#C[C@@]1(NC(=O)[C@@H](CC(=O)N2CCOCC2)CC2CCCCC2)CCNC1 |
| 135 | 12 | N#CC1(NC(=O)[C@@H](CC(=O)N2CCOCC2)CC2CCCCC2)CC1 |
